Assay results taken from US10865216B2, “Tricyclic Gyrase inhibitors” (MERCK SHARP & DOHME CORP., priority 2012, dated 2020).
Converted amounts (≈) assume the structure as drawn. Like-named read-outs stand apart in the source and are kept apart here.

Columns and labels:
S. aureus ATCC 13709 = experiment: MIC, S. aureus ATCC 13709; assay type: cell-based; conditions: for MIC: Staphylococcus aureus; for MIC Sa: S. aureus
E. coli ATCC 25922 = experiment: MIC, E. coli ATCC 25922; assay type: cell-based; conditions: for MIC: Escherichia coli; for MIC Ec: E. coli
[1] = ATCC13709, Table 16, new R4 substituents, read-out: SA MIC
[2] = ATCC25922, Table 16, new R4 substituents, EC8 not defined, read-out: EC8 MIC
[3] = Alamar Blue read after overnight incubation at 35° C.
[4] = ATCC13709, S. aureus, Alamar Blue read after overnight incubation at 35° C., read-out: MIC Sa
[5] = ATCC25922, E. coli, Alamar Blue read after overnight incubation at 35° C., read-out: MIC Ec

MIC Sa (S. aureus ATCC 13709; [3]) [µg/mL]	MIC Ec (E. coli ATCC 25922; [3]) [µg/mL]	MIC (S. aureus ATCC 13709; [4]) [µg/mL]	MIC (E. coli ATCC 25922; [5]) [µg/mL]	SMILES	further results
				CNc1cc(F)cc2c1[nH]c1nc(Oc3cnc(C)nc3)nc(N3CC[C@@H](CN)C3)c12	MIC (S. aureus ATCC 13709; [1]): ≤ 0.5 µg/mL; MIC (E. coli ATCC 25922; [2]): ≤ 0.5 µg/mL
				CNc1cc(F)cc2c1[nH]c1nc(Oc3cnc(C)nc3)nc(N3CC[C@H](CN)C3)c12	MIC (S. aureus ATCC 13709; [1]): ≤ 0.5 µg/mL; MIC (E. coli ATCC 25922; [2]): ≤ 0.5 µg/mL
				CNc1cc(F)cc2c1[nH]c1nc(Oc3cnc(C)nc3)nc(NCCN)c12	MIC (S. aureus ATCC 13709; [1]): 4 µg/mL (≈ 10.5 µM); MIC (E. coli ATCC 25922; [2]): 16 µg/mL (≈ 41.8 µM)
				CNc1cc(F)cc2c1[nH]c1nc(Oc3cnc(C)nc3)nc(N3CCC[C@H]3CN)c12	MIC (S. aureus ATCC 13709; [1]): 1 µg/mL (≈ 2.37 µM); MIC (E. coli ATCC 25922; [2]): 2 µg/mL (≈ 4.73 µM)
				CNc1cc(F)cc2c1[nH]c1nc(Oc3cnc(C)nc3)nc(C3=CCNC3)c12	MIC (S. aureus ATCC 13709; [1]): ≤ 0.5 µg/mL; MIC (E. coli ATCC 25922; [2]): 8 µg/mL (≈ 20.4 µM)
				CNc1cc(F)cc2c1[nH]c1nc(Oc3cnc(C)nc3)nc(N3CC(N)C(C(=O)O)C3)c12 (centres unmarked)	MIC (S. aureus ATCC 13709; [1]): > 16 µg/mL; MIC (E. coli ATCC 25922; [2]): > 16 µg/mL
32 (≈ 60.5 µM)	>64			NC1CN(c2nc(Sc3cnc4ccc[n+]([O-])c4c3)nc3[nH]c4c(NC5CC5)cc(F)cc4c23)CC12CC2 (centres unmarked) [Compound 1.02]	
32 (≈ 67.2 µM)	>64			NC1C2CN(c3nc(Sc4cnc5ccc[n+]([O-])c5c4)nc4[nH]c5c(Cl)cccc5c34)CC12 (centres unmarked) [Compound 1.03]	
32 (≈ 69 µM)	64 (≈ 138 µM)			N[C@@H]1CCN(c2nc(Sc3cnc4ccc[n+]([O-])c4c3)nc3[nH]c4c(Cl)cccc4c23)C1 [Compound 1.04]	
>64	>64			NC1CN(c2nc(Sc3cnc4nccnc4c3)nc3[nH]c4ccccc4c23)C1 [Compound 1.05]	
32 (≈ 77.2 µM)	>64			NC1CCN(c2nc(Sc3cnc4nccnc4c3)nc3[nH]c4ccccc4c23)C1 (centres unmarked) [Compound 1.06]	
4 (≈ 9.08 µM)	>32			Cc1cccc2c1[nH]c1nc(Sc3cnc4nccnc4c3)nc(N3CC4C(N)C4C3)c12 (centres unmarked) [Compound 1.07]	
64 (≈ 140 µM)	>64			Nc1cccc2c1[nH]c1nc(Sc3cnc4ccc[n+]([O-])c4c3)nc(N3CC4C(N)C4C3)c12 (centres unmarked) [Compound 1.08]	
64 (≈ 145 µM)	>64			Nc1cccc2c1[nH]c1nc(Sc3cnc4cccnc4c3)nc(N3CC4C(N)C4C3)c12 (centres unmarked) [Compound 1.09]	
		≤ 0.5	4 (≈ 8.25 µM)	CCNc1cccc2c1[nH]c1nc(Sc3cnc4ccc[n+]([O-])c4c3)nc(N3CC4C(N)C4C3)c12 (centres unmarked) [Compound 1.10]	
		≤ 0.5	8 (≈ 17.1 µM)	CCNc1cccc2c1[nH]c1nc(Sc3cnc4cccnc4c3)nc(N3CC4C(N)C4C3)c12 (centres unmarked) [Compound 1.11]	

MIC Sa (S. aureus ATCC 13709; [3]) [µg/mL]	MIC Ec (E. coli ATCC 25922; [3]) [µg/mL]	MIC (S. aureus ATCC 13709; [4]) [µg/mL]	MIC (E. coli ATCC 25922; [5]) [µg/mL]	SMILES	further results
		≤ 0.5	1 (≈ 2.2 µM)	CNc1cccc2c1[nH]c1nc(Sc3cnc4cccnc4c3)nc(N3CC4C(N)C4C3)c12 (centres unmarked) [Compound 1.12]	
≤0.5			≤ 0.5	CNc1cccc2c1[nH]c1nc(Sc3cnc4ccc[n+]([O-])c4c3)nc(N3CC4C(N)C4C3)c12 (centres unmarked) [Compound 1.13]	
		≤ 0.5	1 (≈ 2.18 µM)	CNc1cccc2c1[nH]c1nc(Sc3cnc4ccc[n+]([O-])c4c3)nc(N3CC[C@H](N)C3)c12 [Compound 1.14]	
		1 (≈ 2.25 µM)	2 (≈ 4.51 µM)	CNc1cccc2c1[nH]c1nc(Sc3cnc4nccnc4c3)nc(N3CC[C@H](N)C3)c12 [Compound 1.15]	
		≤ 0.5	1 (≈ 2.2 µM)	CNc1cccc2c1[nH]c1nc(Sc3cnc4nccnc4c3)nc(N3CC4C(N)C4C3)c12 (centres unmarked) [Compound 1.16]	
		≤ 0.5	> 64	CNc1cccc2c1[nH]c1nc(Sc3cnc4ccc[n+]([O-])c4c3)nc(N3CC(O)C3)c12 [Compound 1.17]	
		≤ 0.5	2 (≈ 4.13 µM)	CNc1cccc2c1[nH]c1nc(Sc3cnc4ccc[n+]([O-])c4c3)nc(N3C[C@@H]4[C@@H](CN)[C@@H]4C3)c12 [Compound 1.18]	
>64	>64			CNc1cccc2c1[nH]c1nc(Sc3cnc4ccc[n+]([O-])c4c3)nc(N3C[C@@H]4[C@H](C3)[C@@]4(N)C(N)=O)c12 [Compound 1.19]	
		4 (≈ 8.72 µM)	16 (≈ 34.9 µM)	CNc1cccc2c1[nH]c1nc(Sc3cnc4ccc[n+]([O-])c4c3)nc(N3CC(CN)C3)c12 [Compound 1.20]	
		≤ 0.5	> 64	CNc1cccc2c1[nH]c1nc(Sc3cnc4ccc[n+]([O-])c4c3)nc(N3CC(CNC(=O)c4cn(C)nc4C(F)(F)F)C3)c12 [Compound 1.21]	
		1 (≈ 1.96 µM)	8 (≈ 15.7 µM)	CNc1cccc2c1[nH]c1nc(Sc3cncc(S(=O)(=O)N(C)C)c3)nc(N3CC4C(N)C4C3)c12 (centres unmarked) [Compound 1.22]	
≤0.5	≤0.5			CNc1cccc2c1[nH]c1nc(Sc3cnc4ccc[n+]([O-])c4c3)nc(N3CC4C(N)C4C3)c12 (centres unmarked) [Compound 1.23]	
≤0.5	1 (≈ 2.2 µM)			CNc1cccc2c1[nH]c1nc(Sc3cnc4cccnc4c3)nc(N3CC4C(N)C4C3)c12 (centres unmarked) [Compound 1.24]	
	4 (≈ 8.54 µM)	≤ 0.5		CNc1cccc2c1[nH]c1nc(Sc3cnc4cccnc4c3)nc(N3CCC4(CC4N)C3)c12 (centres unmarked) [Compound 1.25]	
≤0.5	1 (≈ 2.13 µM)			CNc1cccc2c1[nH]c1nc(Sc3cnc4cccnc4c3)nc(N3CCC4(CC4N)C3)c12 (centres unmarked) [Compound 1.26]	
